25 compounds from patent publication US10112937B2, “P2X7 modulators and methods of use” (Janssen Pharmaceutica NV, priority 2013, dated 2018) can be followed below.

Bounds are passed on as bounds.

Holding throughout (type): cell-based
In assay [1] the target is T1, human P2X7 (Homo sapiens (Human), UniProt Q99572). In words: P2X7 antagonism in human PBMCs (IL-1β release after LPS + Bz-ATP, ELISA). The settings on record: for PBMC 10 μM (% control): test compound 10 μM; for PBMC 1 μM (% control): test compound 1 μM.
T1 sequence (Q99572 whole entry): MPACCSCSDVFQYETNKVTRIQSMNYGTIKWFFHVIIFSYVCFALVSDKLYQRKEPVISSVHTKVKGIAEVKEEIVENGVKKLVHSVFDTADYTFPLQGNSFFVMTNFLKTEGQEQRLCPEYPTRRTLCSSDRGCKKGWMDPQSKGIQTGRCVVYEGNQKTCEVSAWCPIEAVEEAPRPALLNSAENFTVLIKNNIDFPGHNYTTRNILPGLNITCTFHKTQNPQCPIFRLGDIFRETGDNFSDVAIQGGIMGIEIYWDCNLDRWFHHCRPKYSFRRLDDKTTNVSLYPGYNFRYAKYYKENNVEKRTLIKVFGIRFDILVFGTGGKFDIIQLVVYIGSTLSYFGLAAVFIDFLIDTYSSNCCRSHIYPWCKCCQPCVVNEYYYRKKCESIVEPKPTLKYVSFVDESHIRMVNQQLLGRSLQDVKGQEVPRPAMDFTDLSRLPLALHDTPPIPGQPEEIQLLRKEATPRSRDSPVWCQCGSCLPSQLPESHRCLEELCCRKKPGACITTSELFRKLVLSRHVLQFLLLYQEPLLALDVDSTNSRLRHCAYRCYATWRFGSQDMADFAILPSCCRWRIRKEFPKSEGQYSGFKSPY
Assay [2] concerns the target T1, human P2X7. In words: Ca2+ flux (FLIPR) in 1321N1 cells expressing recombinant human P2X7.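 Also: cells loaded with Calcium-4 dye, preincubated with test compound for 30 min, fluorescence change read 180 s after agonist addition.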 The settings on record: 1321N1 cells, recombinant human P2X7, 250 μM BzATP. (In general: Calcium assays in cells follow changes in intracellular calcium, usually with a dye or a luminescent sensor.)
For a further assay, the target named is rat P2X7 (Rattus norvegicus (Rat), UniProt Q64663). The experiment in a line: Ca2+ flux (FLIPR) in 1321N1 cells expressing recombinant rat P2X7.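 Also: Calcium-4 dye fluorescence change read 180 s after agonist addition, with cells preincubated 30 min with compound and dye in 96-well plates.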
Chain of rat P2X7 (Q64663 whole entry): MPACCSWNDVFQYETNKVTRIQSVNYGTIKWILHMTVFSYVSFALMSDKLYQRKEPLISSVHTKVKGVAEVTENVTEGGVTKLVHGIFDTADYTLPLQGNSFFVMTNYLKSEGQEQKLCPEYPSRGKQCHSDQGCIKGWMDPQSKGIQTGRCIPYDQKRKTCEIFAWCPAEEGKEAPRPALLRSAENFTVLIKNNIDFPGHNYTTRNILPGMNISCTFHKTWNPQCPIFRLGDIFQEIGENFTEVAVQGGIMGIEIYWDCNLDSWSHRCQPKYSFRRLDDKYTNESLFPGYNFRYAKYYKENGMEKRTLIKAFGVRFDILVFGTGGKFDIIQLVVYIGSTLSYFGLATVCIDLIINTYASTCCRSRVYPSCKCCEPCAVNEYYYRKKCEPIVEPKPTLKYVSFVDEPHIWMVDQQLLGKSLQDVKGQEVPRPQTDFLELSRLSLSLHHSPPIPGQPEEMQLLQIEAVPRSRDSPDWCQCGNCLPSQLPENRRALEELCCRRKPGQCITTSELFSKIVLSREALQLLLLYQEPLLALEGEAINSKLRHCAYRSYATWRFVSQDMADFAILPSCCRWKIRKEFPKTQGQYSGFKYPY
The mark [3] stands for this setting: 1321N1 cells, recombinant rat P2X7, 250 μM BzATP.

Experimental for rat P2X7: P2X7 Antagonism in Recombinant Human P2X7 Cells or Recombinant Rat P2X7 Cells: (a) Ca^2+ Flux and (b) Radioligand Binding
1321N1 cells expressing the recombinant human or rat P2X7 channel was cultured in HyQ DME/(HyClone/Dulbecco's Modified Eagle Medium) high glucose supplemented with 10% Fetal Bovine Serum (FBS) and appropriate selection marker. Cells were seeded at a density of 25000 cells/well (96-well clear bottom black walled plates) in 100 μl volume/well. On the day of the experiment, cell plates were washed with assay buffer, containing (in mM): 130 NaCl, 2 KCl, 1 CaCl2, 1 MgCl2, 10 HEPES, 5 glucose; pH 7.40 and 300 mOs. After the wash, cells were loaded with the Calcium-4 dye (Molecular Device) and incubated in the dark for 60 minutes. Test compounds were prepared at 250× the test concentration in neat DMSO. Intermediate 96-well compound plates were prepared by transferring 1.2 μL of the compound into 300 μL of assay buffer. A further 3× dilution occurred when transferring 50 μL/well of the compound plate to 100 μL/well in the cell plate. Cells were incubated with test compounds and dye for 30 minutes. […] The fluorescence change was measured 180 seconds after adding the agonist.

`Cc1cc(-n2nnc3c2CCN(C(=O)c2cccc(C(F)(F)F)c2F)C3C)ncn1` (centres unmarked) [Example 396, (2-fluoro-3-(trifluoromethyl)phenyl)(4-methyl-1-(6-methylpyrimidin-4-yl)-6,7-dihydro-1H-[1,2,3]triazolo[4,5-c]pyridin-5(4H)-yl)methanone]: at human P2X7 [1] (human PBMCs), the “PBMC 10 μM (% control)” value was determined as 23.0 % control. For the same compound, the figures for the IC50 on human P2X7 [2] and on rat P2X7 (setting [3]) were 9770 nM and over 10000 nM, respectively.
For the compound `Cc1c(C(=O)N2CCc3c(ncn3-c3ccc(F)cn3)C2C)cccc1C(F)(F)F` (centres unmarked) [Example 263, (1-(5-fluoropyridin-2-yl)-4-methyl-6,7-dihydro-1H-imidazo[4,5-c]pyridin-5(4H)-yl)(2-methyl-3-(trifluoromethyl)phenyl)methanone], on human P2X7 [1] (human PBMCs), the “PBMC 10 μM (% control)” value is −1.6 % control. Also, at human P2X7 [2], the IC50 was 17.5 nM.
On the same counts, the results for `O=C(c1ccc(Cl)cc1Cl)N1CCc2c(ncn2-c2ccc(F)cn2)C1` [Example 313, (2,4-dichlorophenyl)(1-(5-fluoropyridin-2-yl)-6,7-dihydro-1H-imidazo[4,5-c]pyridin-5(4H)-yl)methanone] are −5.4 % control and 880 nM.
On the same counts, the results for `Cc1ccnc(-n2nnc3c2CCN(C(=O)c2cccc(OC(F)(F)F)c2)C3C)c1` (single isomer, unassigned) [Example 377, (S*)-(4-methyl-1-(4-methylpyridin-2-yl)-6,7-dihydro-1H-[1,2,3]triazolo[4,5-c]pyridin-5(4H)-yl)(3-(trifluoromethoxy)phenyl)methanone] are 8.1 % control and 5510 nM.
As for `O=C(C1c2ncn(-c3ccccn3)c2CCN1C(=O)c1cccc(C(F)(F)F)c1Cl)N1CCC1` (centres unmarked) [Example 35, 4-(Azetidin-1-ylcarbonyl)-5-{[2-chloro-3-(trifluoromethyl)phenyl]carbonyl}-1-pyridin-2-yl-4,5,6,7-tetrahydro-1H-imidazo[4,5-c]pyridine], the IC50 on human P2X7 [2] was determined as 348 nM; on rat P2X7 (setting [3]), 235 nM.
On the same counts, the results for `CCOC(=O)C1c2ncn(-c3cnccn3)c2CCN1C(=O)c1cccc(Cl)c1Cl` (centres unmarked) [Example 29, Ethyl 5-[(2,3-dichlorophenyl)carbonyl]-1-pyrazin-2-yl-4,5,6,7-tetrahydro-1H-imidazo[4,5-c]pyridine-4-carboxylate] are 62 nM and 2500 nM.
For the compound `O=C(c1cccc(C(F)(F)F)c1F)N1CCc2c(ncn2-c2ccc(F)cn2)C1` [Example 314, (2-fluoro-3-(trifluoromethyl)phenyl)(1-(5-fluoropyridin-2-yl)-6,7-dihydro-1H-imidazo[4,5-c]pyridin-5(4H)-yl)methanone], on human P2X7 [2], the IC50 was determined as 3540 nM.
As for `O=C(c1cccc(C(F)(F)F)c1Cl)N1CCc2c(nnn2-c2ncc(F)cn2)C1` [Example 64, 5-{[2-Chloro-3-(trifluoromethyl)phenyl]carbonyl}-1-(5-fluoropyrimidin-2-yl)-4,5,6,7-tetrahydro-1H-[1,2,3]triazolo[4,5-c]pyridine], the “PBMC 10 μM (% control)” value at human P2X7 [1] (human PBMCs) is listed as −9.2 % control. For the same compound, the IC50 on human P2X7 [2] turned out to be 22.8 nM.
On the same counts, the results for `CC1c2ncn(-c3ncccc3F)c2CCN1C(=O)c1cccc(C(F)(F)F)c1Cl` (centres unmarked) [Example 21, (2-Chloro-3-(trifluoromethyl)phenyl)(1-(3-fluoropyridin-2-yl)-4-methyl-6,7-dihydro-1H-imidazo[4,5-c]pyridin-5(4H)-yl)methanone] are 1.6 % control and 90 nM.
Consider `O=C(OCC1c2ncn(-c3ccccc3)c2CCN1C(=O)c1cccc(C(F)(F)F)c1Cl)c1cccc(C(F)(F)F)c1Cl` (centres unmarked) [Example 36, (5-{[2-Chloro-3-(trifluoromethyl)phenyl]carbonyl}-1-phenyl-4,5,6,7-tetrahydro-1H-imidazo[4,5-c]pyridin-4-yl)methyl 2-chloro-3-(trifluoromethyl)benzoate], for which, on human P2X7 [2], the IC50 came out at 3390 nM.
Consider `Cc1ccnc(-n2nnc3c2CCN(C(=O)c2cccc(OC(F)(F)F)c2)C3C)c1` (centres unmarked) [Example 375, (4-methyl-1-(4-methylpyridin-2-yl)-6,7-dihydro-1H-[1,2,3]triazolo[4,5-c]pyridin-5(4H)-yl)(3-(trifluoromethoxy)phenyl)methanone], for which the “PBMC 10 μM (% control)” value at human P2X7 [1] (human PBMCs) is recorded as 63.3 % control. The IC50 at human P2X7 [2] was over 10000 nM.
On the same counts, the results for `CC1c2ncn(-c3ccc(F)cn3)c2CCN1C(=O)c1ccc(F)c(Cl)c1Cl` (centres unmarked) [Example 261, (2,3-dichloro-4-fluorophenyl)(1-(5-fluoropyridin-2-yl)-4-methyl-6,7-dihydro-1H-imidazo[4,5-c]pyridin-5(4H)-yl)methanone] are −3.1 % control and 29.3 nM.
In the case of `O=C(c1cccc(C(F)(F)F)c1Cl)N1CCc2c(ncn2-c2ccccn2)C1` [Example 1, (2-Chloro-3-(trifluoromethyl)phenyl)(1-(pyridin-2-yl)-6,7-dihydro-1H-imidazo[4,5-c]pyridin-5(4H)-yl)methanone], the concentration for half-maximal inhibition (IC50) at human P2X7 [2] came to 4.1 nM.
For `Cc1cccc(-n2nnc3c2CCN(C(=O)c2cccc(C(F)(F)F)c2F)C3C)n1` (centres unmarked) [Example 385, (2-fluoro-3-(trifluoromethyl)phenyl)(4-methyl-1-(6-methylpyridin-2-yl)-6,7-dihydro-1H-[1,2,3]triazolo[4,5-c]pyridin-5(4H)-yl)methanone], the “PBMC 10 μM (% control)” value on human P2X7 [1] (human PBMCs) is 12.4 % control. Moreover, at rat P2X7 (setting [3]), the IC50 was determined as 57.8 nM.
Turning to `CC1(C)c2ncn(-c3ccccc3)c2CCN1C(=O)c1cccc(C(F)(F)F)c1Cl` [Example 53, 5-{[2-Chloro-3-(trifluoromethyl)phenyl]carbonyl}-4,4-dimethyl-1-phenyl-4,5,6,7-tetrahydro-1H-imidazo[4,5-c]pyridine], on human P2X7 [1] (human PBMCs), the “PBMC 1 μM (% control)” value came out at 99.0 % control. Moreover, on rat P2X7 (setting [3]), the IC50 is 3150 nM.
With `CCOC(=O)C1c2ncn(-c3ccccn3)c2CCN1C(=O)c1cccc(Cl)c1Cl` (centres unmarked) [Example 25, Ethyl 5-(2,3-dichlorobenzoyl)-1-(pyridin-2-yl)-4,5,6,7-tetrahydro-1H-imidazo[4,5-c]pyridine-4-carboxylate], the “PBMC 1 μM (% control)” value on human P2X7 [1] (human PBMCs) is listed as 9.7 % control. Moreover, the half-inhibitory concentration (IC50) at human P2X7 [2] is 142 nM.
On the same counts, the results for `CCC1c2ncn(-c3cnccn3)c2CCN1C(=O)c1cccc(C(F)(F)F)c1Cl` (centres unmarked) [Example 15, (2-Chloro-3-(trifluoromethyl)phenyl)(4-ethyl-1-(pyrazin-2-yl)-6,7-dihydro-1H-imidazo[4,5-c]pyridin-5(4H)-yl)methanone] are 9.1 % control and 81.4 nM.
Regarding `Cc1cccc(-n2nnc3c2CCN(C(=O)c2cccc(C(F)(F)F)c2F)[C@H]3C)n1` (single isomer, unassigned) [Example 387, (S*)-(2-fluoro-3-(trifluoromethyl)phenyl)(4-methyl-1-(6-methylpyridin-2-yl)-6,7-dihydro-1H-[1,2,3]triazolo[4,5-c]pyridin-5(4H)-yl)methanone], the “PBMC 10 μM (% control)” value at human P2X7 [1] (human PBMCs) amounted to 8.4 % control. The IC50 on rat P2X7 (setting [3]) was determined as 161 nM.
Consider `O=C(c1cccc(C(F)(F)F)c1Cl)N1CCc2c(nnn2-c2ccn[nH]2)C1` [Example 68, 5-{[2-Chloro-3-(trifluoromethyl)phenyl]carbonyl}-1-(1H-pyrazol-5-yl)-4,5,6,7-tetrahydro-1H-[1,2,3]triazolo[4,5-c]pyridine], for which the IC50 at human P2X7 [2] was found to be 39.4 nM; on rat P2X7 (setting [3]), 210 nM.
Regarding `Cc1cc(-n2nnc3c2CCN(C(=O)c2cccc(C(F)(F)F)c2Cl)C3C)ncn1` (centres unmarked) [Example 402, (2-chloro-3-(trifluoromethyl)phenyl)(4-methyl-1-(6-methylpyrimidin-4-yl)-6,7-dihydro-1H-[1,2,3]triazolo[4,5-c]pyridin-5(4H)-yl)methanone], the “PBMC 10 μM (% control)” value at human P2X7 [1] (human PBMCs) stood at 0.3 % control. Also, the IC50 at human P2X7 [2] worked out at 879 nM.
Regarding `Cc1ccnc(-n2nnc3c2CCN(C(=O)c2ccnc(C(F)(F)F)c2F)C3C)c1` (centres unmarked) [Example 355, (3-fluoro-2-(trifluoromethyl)pyridin-4-yl)(4-methyl-1-(4-methylpyridin-2-yl)-6,7-dihydro-1H-[1,2,3]triazolo[4,5-c]pyridin-5(4H)-yl)methanone], the “PBMC 10 μM (% control)” value on human P2X7 [1] (human PBMCs) is −2.0 % control. For the same compound, the IC50 on rat P2X7 (setting [3]) came out at 394 nM.
Take `CC1c2ncn(-c3ccc(F)cn3)c2CCN1C(=O)c1ccc(F)cc1Cl` (centres unmarked) [Example 256, (2-chloro-4-fluorophenyl)(1-(5-fluoropyridin-2-yl)-4-methyl-6,7-dihydro-1H-imidazo[4,5-c]pyridin-5(4H)-yl)methanone]: the “PBMC 10 μM (% control)” value at human P2X7 [1] (human PBMCs) was 7.1 % control. The half-maximal inhibitory concentration (IC50) on human P2X7 [2] was found to be 4370 nM.
Turning to `Cc1cc(-n2nnc3c2CCN(C(=O)c2cccc(C(F)(F)F)c2Cl)C3C)ncc1F` (centres unmarked) [Example 381, (2-chloro-3-(trifluoromethyl)phenyl)(1-(5-fluoro-4-methylpyridin-2-yl)-4-methyl-6,7-dihydro-1H-[1,2,3]triazolo[4,5-c]pyridin-5(4H)-yl)methanone], on human P2X7 [1] (human PBMCs), the “PBMC 10 μM (% control)” value was determined as 4.1 % control. The IC50 at rat P2X7 (setting [3]) stood at 234 nM.
On to `Cc1nc(-n2nnc3c2CCN(C(=O)c2cccc(C(F)(F)F)c2Cl)C3C)ncc1F` (single isomer, unassigned) [Example 306, (S*)-(2-chloro-3-(trifluoromethyl)phenyl)(1-(5-fluoro-4-methylpyrimidin-2-yl)-4-methyl-6,7-dihydro-1H-[1,2,3]triazolo[4,5-c]pyridin-5(4H)-yl)methanone], for which the “PBMC 10 μM (% control)” value on human P2X7 [1] (human PBMCs) and on human P2X7 [1] (LPS 30 ng/ml + 0.5 mM Bz-ATP) was 2.5 % control each time. Besides, the IC50 is 5980 nM at rat P2X7 (250 μM BzATP, Calcium-4 dye) and 5980 nM at rat P2X7 (setting [3]).
Take `Cc1c(C(=O)N2CCc3c(ncn3-c3ccc(F)cn3)C2)cccc1C(F)(F)F` [Example 312, (1-(5-fluoropyridin-2-yl)-6,7-dihydro-1H-imidazo[4,5-c]pyridin-5(4H)-yl)(2-methyl-3-(trifluoromethyl)phenyl)methanone]: at human P2X7 [1] (human PBMCs), the “PBMC 10 μM (% control)” value is listed as 9.5 % control. For the same compound, the IC50 on human P2X7 [2] was determined as 114 nM.

A word on the IC50: it is the midpoint of a concentration-inhibition curve.
